{"source": "patent US10968215B2", "about": "(SHANGHAI HAIHE PHARMACEUTICAL CO., LTD., priority 2016, dated 2021)"}
{"biological_target": "PRC2 complex (EZH2 Y641F/EED/SUZ12/RbAp48/AEBP2) (Homo sapiens (Human), UniProt Q15910, Y641F)", "sequence (Q15910 whole entry Y641F)": "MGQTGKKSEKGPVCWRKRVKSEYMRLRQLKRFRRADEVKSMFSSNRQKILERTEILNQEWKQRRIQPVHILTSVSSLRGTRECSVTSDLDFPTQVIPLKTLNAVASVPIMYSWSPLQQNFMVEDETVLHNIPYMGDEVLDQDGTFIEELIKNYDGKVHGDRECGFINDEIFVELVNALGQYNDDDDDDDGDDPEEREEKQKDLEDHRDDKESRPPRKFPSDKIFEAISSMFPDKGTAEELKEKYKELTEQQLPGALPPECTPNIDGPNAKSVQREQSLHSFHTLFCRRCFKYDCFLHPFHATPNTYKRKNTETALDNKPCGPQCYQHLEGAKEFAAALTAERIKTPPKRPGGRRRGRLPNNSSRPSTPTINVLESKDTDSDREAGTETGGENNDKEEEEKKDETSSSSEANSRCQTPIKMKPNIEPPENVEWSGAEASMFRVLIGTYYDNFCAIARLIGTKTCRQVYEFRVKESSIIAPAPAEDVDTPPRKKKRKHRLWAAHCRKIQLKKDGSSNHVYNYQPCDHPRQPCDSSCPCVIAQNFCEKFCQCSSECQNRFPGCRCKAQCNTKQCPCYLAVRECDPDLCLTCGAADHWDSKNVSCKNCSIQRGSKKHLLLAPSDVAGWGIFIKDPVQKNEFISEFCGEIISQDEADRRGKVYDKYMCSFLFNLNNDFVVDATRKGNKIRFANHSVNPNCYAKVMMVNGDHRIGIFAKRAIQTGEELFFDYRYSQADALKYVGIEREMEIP", "sequence (O75530 whole entry partner)": "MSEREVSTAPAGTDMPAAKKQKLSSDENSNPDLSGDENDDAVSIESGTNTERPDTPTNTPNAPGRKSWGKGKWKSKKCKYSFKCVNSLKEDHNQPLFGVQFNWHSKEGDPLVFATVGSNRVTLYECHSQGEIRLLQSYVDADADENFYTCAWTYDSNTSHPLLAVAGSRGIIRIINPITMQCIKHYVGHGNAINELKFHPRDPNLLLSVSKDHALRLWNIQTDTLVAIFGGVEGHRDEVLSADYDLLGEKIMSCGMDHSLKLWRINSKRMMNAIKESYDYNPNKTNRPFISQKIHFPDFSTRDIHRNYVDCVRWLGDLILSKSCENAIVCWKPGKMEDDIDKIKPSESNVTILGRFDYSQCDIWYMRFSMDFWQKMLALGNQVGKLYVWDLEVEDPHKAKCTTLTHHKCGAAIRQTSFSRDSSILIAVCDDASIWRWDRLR", "sequence (Q15022 whole entry partner)": "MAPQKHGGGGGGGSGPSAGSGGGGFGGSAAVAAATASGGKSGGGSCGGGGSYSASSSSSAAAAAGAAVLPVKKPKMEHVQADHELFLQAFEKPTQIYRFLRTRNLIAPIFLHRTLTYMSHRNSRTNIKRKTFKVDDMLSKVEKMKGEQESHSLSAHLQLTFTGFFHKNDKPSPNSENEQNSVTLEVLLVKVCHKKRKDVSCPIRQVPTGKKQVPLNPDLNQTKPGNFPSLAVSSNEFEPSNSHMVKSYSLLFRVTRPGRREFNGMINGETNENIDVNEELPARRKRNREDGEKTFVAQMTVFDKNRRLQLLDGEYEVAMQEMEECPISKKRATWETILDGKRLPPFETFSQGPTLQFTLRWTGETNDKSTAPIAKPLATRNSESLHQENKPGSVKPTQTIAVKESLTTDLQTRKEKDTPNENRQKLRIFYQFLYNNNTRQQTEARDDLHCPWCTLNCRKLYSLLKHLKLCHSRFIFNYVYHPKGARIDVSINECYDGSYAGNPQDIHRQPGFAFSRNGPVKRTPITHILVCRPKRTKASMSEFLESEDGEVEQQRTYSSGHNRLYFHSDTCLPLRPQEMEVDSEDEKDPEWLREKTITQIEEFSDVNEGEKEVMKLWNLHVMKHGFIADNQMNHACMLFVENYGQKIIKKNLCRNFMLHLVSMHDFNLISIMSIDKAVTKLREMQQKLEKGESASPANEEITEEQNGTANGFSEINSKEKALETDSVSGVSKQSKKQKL", "sequence (Q09028 whole entry partner)": "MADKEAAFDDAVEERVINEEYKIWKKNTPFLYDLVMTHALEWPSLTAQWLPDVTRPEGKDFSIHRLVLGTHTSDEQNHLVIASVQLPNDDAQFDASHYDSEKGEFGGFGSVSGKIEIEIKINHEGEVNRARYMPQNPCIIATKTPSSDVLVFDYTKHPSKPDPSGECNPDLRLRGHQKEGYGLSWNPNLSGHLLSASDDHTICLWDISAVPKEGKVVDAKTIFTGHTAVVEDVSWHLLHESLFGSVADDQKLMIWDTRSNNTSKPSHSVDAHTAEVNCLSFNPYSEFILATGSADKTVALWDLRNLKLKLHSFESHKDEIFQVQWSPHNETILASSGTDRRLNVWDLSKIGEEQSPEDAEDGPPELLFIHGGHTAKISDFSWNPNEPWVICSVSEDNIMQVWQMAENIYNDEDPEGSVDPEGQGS", "sequence (Q6ZN18 whole entry partner)": "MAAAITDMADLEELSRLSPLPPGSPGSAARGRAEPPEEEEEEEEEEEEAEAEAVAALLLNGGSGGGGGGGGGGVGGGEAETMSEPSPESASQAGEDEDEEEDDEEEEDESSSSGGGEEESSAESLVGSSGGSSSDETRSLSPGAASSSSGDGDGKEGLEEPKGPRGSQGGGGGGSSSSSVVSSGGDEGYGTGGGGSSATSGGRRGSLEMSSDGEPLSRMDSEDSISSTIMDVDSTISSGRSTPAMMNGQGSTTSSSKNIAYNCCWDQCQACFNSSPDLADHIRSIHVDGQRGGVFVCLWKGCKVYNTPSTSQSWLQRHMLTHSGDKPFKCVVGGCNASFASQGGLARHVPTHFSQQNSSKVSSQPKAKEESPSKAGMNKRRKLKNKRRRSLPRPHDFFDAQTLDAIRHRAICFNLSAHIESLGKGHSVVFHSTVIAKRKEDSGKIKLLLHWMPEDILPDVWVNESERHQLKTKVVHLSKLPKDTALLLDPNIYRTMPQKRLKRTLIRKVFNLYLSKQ", "experiment": "Activity of a compound to PRC2 complex (EZH2 Y641F), HTRF", "conditions": "read-out: IC50 (EZH2_Y641F); EZH2 Y641F PRC2 complex, HTRF; class symbols", "units": {"IC50": "nM"}, "description": "Determination of the Activity of a Compound to PRC2 Complex (EZH2Y641F):\nDetection Method: Homogeneous Time-Resolved Fluorescence (HTRF)\nReaction was conducted in darkness at room temperature for 4 h. […] The IC50 values of the compounds were calculated using SoftMax Pro 5.4.1 software."}
{"compound": "1-(2-chloropyridin-4-yl)-N-((4-methoxy-6-methyl-2-oxo-1,2-dihydropyridin-3-yl)methyl)-6-methyl-5-(1-(4-(2,2,2-trifluoroethyl)piperazin-1-yl)ethyl)indolizine-7-carboxamide [Compound 167]", "IC50": "< 100"}
{"compound": "Cc1cc(C)c(CNC(=O)c2cc3c(-c4ccc(N)nc4)ccn3c([C@H](C)N3CCN(CC(F)(F)F)CC3)c2C)c(=O)[nH]1", "note": "(single isomer, unassigned) [Compound 160, (S)-1-(6-aminopyridin-3-yl)-N-((4,6-dimethyl-2-oxo-1,2-dihydropyridin-3-yl)methyl)-6-methyl-5-(1-(4-(2,2,2-trifluoroethyl)piperazin-1-yl)ethyl)indolizine-7-carboxamide or (R) 1-(6-aminopyridin-3-yl)-N-((4,6-dimethyl-2-oxo-1,2-dihydropyridin-3-yl)methyl)-6-methyl-5-(1-(4-(2,2,2-trifluoroethyl)piperazin-1-yl)ethyl)indolizine-7-carboxamide]", "IC50": "< 100"}
{"compound": "CNc1ccc(-c2ccn3c([C@H](C)N4CCN(CC(F)(F)F)CC4)c(C)c(C(=O)NCc4c(OC)cc(C)[nH]c4=O)cc23)cn1", "note": "(single isomer, unassigned) [Compound 164, (S)—N-((4-methoxy-6-methyl-2-oxo-1,2-dihydropyridin-3-yl)methyl)-6-methyl-1-(6-(methylamino)pyridin-3-yl)-5-(1-(4-(2,2,2-trifluoroethyl)piperazin-1-yl)ethyl)indolizine-7-formamide or (R)—N-((4-methoxy-6-methyl-2-oxo-1,2-dihydropyridin-3-yl)methyl)-6-methyl-1-(6-(methylamino)pyridin-3-yl)-5-(1-(4-(2,2,2-trifluoroethyl)piperazin-1-yl)ethyl)indolizine-7-formamide]", "IC50": "100 to 1000"}
{"compound": "CNc1ccc(-c2ccn3c([C@H](C)N4CCN(CC(F)(F)F)CC4)c(C)c(C(=O)NCc4c(OC)cc(C)[nH]c4=O)cc23)cn1", "note": "(single isomer, unassigned) [Compound 165, (S)—N-((4-methoxy-6-methyl-2-oxo-1,2-dihydropyridin-3-yl)methyl)-6-methyl-1-(6-(methylamino)pyridin-3-yl)-5-(1-(4-(2,2,2-trifluoroethyl)piperazin-1-yl)ethyl)indolizine-7-formamide or (R)—N-((4-methoxy-6-methyl-2-oxo-1,2-dihydropyridin-3-yl)methyl)-6-methyl-1-(6-(methylamino)pyridin-3-yl)-5-(1-(4-(2,2,2-trifluoroethyl)piperazin-1-yl)ethyl)indolizine-7-formamide]", "IC50": "< 100"}
{"compound": "COc1cc(C)[nH]c(=O)c1CNC(=O)c1cc2c(-c3ccnc(Cl)c3)ccn2c([C@H](C)N2CCN(CC(F)(F)F)CC2)c1C", "note": "(single isomer, unassigned) [Compound 168, (S)-1-(2-chloropyridin-4-yl)-N-((4-methoxy-6-methyl-2-oxo-1,2-dihydropyridine-3-yl)methyl)-6-methyl-5-(1-(4-(2,2,2-trifluoroethyl)piperazin-1-yl)ethyl)indolizine-7-carboxamide or (R) 1-(2-chloropyridin-4-yl)-N-((4-methoxy-6-methyl-2-oxo-1,2-dihydropyridine-3-yl)methyl)-6-methyl-5-(1-(4-(2,2,2-trifluoroethyl)piperazin-1-yl)ethyl)indolizine-7-carboxamide]", "IC50": "100 to 1000"}
{"compound": "COc1cc(C)[nH]c(=O)c1CNC(=O)c1cc2c(-c3ccnc(Cl)c3)ccn2c([C@H](C)N2CCN(CC(F)(F)F)CC2)c1C", "note": "(single isomer, unassigned) [Compound 169, (S)-1-(2-chloropyridin-4-yl)-N-((4-methoxy-6-methyl-2-oxo-1,2-dihydropyridine-3-yl)methyl)-6-methyl-5-(1-(4-(2,2,2-trifluoroethyl)piperazin-1-yl)ethyl)indolizine-7-carboxamide or (R) 1-(2-chloropyridin-4-yl)-N-((4-methoxy-6-methyl-2-oxo-1,2-dihydropyridine-3-yl)methyl)-6-methyl-5-(1-(4-(2,2,2-trifluoroethyl)piperazin-1-yl)ethyl)indolizine-7-carboxamide]", "IC50": "< 100"}
{"compound": "COc1cc(C)[nH]c(=O)c1CNC(=O)c1cc2c(-c3ccnc(N(C)C)c3)ccn2c([C@H](C)N2CCN(CC(F)(F)F)CC2)c1C", "note": "(single isomer, unassigned) [Compound 171, (S)-1-(2-(dimethylamino)pyridin-4-yl)-N-((4-methoxy-6-methyl-2-oxo-1,2-dihydropyridine-3-yl)methyl)-6-methyl-5-(1-(4-(2,2,2-trifluoroethyl)piperazin-1-yl)ethyl)indolizine-7-carboxamide or (R) 1-(2-(dimethylamino)pyridin-4-yl)-N-((4-methoxy-6-methyl-2-oxo-1,2-dihydropyridine-3-yl)methyl)-6-methyl-5-(1-(4-(2,2,2-trifluoroethyl)piperazin-1-yl)ethyl)indolizine-7-carboxamide]", "IC50": "< 100"}
{"compound": "COc1cc(C)[nH]c(=O)c1CNC(=O)c1cc2c(-c3ccnc(N(C)C)c3)ccn2c([C@H](C)N2CCN(CC(F)(F)F)CC2)c1C", "note": "(single isomer, unassigned) [Compound 172, (S)-1-(2-(dimethylamino)pyridin-4-yl)-N-((4-methoxy-6-methyl-2-oxo-1,2-dihydropyridine-3-yl)methyl)-6-methyl-5-(1-(4-(2,2,2-trifluoroethyl)piperazin-1-yl)ethyl)indolizine-7-carboxamide or (R) 1-(2-(dimethylamino)pyridin-4-yl)-N-((4-methoxy-6-methyl-2-oxo-1,2-dihydropyridine-3-yl)methyl)-6-methyl-5-(1-(4-(2,2,2-trifluoroethyl)piperazin-1-yl)ethyl)indolizine-7-carboxamide]", "IC50": "100 to 1000"}
{"compound": "COc1cc(C)[nH]c(=O)c1CNC(=O)c1cc2c(-c3cc(C)nc(C)c3)ccn2c([C@H](C)N2CCN(CC(F)(F)F)CC2)c1C", "note": "(single isomer, unassigned) [Compound 174, (S)-1-(2,6-dimethylpyridin-4-yl)-N-((4-methoxy-6-methyl-2-oxo-1,2-dihydropyridine-3-yl)methyl)-6-methyl-5-(1-(4-(2,2,2-trifluoroethyl)piperazin-1-yl)ethyl)indolizine-7-carboxamide or (R) 1-(2,6-dimethylpyridin-4-yl)-N-((4-methoxy-6-methyl-2-oxo-1,2-dihydropyridine-3-yl)methyl)-6-methyl-5-(1-(4-(2,2,2-trifluoroethyl)piperazin-1-yl)ethyl)indolizine-7-carboxamide]", "IC50": "< 100"}
{"compound": "COc1cc(C)[nH]c(=O)c1CNC(=O)c1cc2c(-c3cc(C)nc(C)c3)ccn2c([C@H](C)N2CCN(CC(F)(F)F)CC2)c1C", "note": "(single isomer, unassigned) [Compound 175, (S)-1-(2,6-dimethylpyridin-4-yl)-N-((4-methoxy-6-methyl-2-oxo-1,2-dihydropyridine-3-yl)methyl)-6-methyl-5-(1-(4-(2,2,2-trifluoroethyl)piperazin-1-yl)ethyl)indolizine-7-carboxamide or (R) 1-(2,6-dimethylpyridin-4-yl)-N-((4-methoxy-6-methyl-2-oxo-1,2-dihydropyridine-3-yl)methyl)-6-methyl-5-(1-(4-(2,2,2-trifluoroethyl)piperazin-1-yl)ethyl)indolizine-7-carboxamide]", "IC50": "100 to 1000"}
{"compound": "COc1cc(C)[nH]c(=O)c1CNC(=O)c1cc2c(-c3ccc(C)nc3C)ccn2c([C@H](C)N2CCN(CC(F)(F)F)CC2)c1C", "note": "(single isomer, unassigned) [Compound 177, (S)-1-(2,6-dimethylpyridin-3-yl)-N-((4-methoxy-6-methyl-2-oxo-1,2-dihydropyridine-3-yl)methyl)-6-methyl-5-(1-(4-(2,2,2-trifluoroethyl)piperazin-1-yl)ethyl)indolizine-7-carboxamide or (R) 1-(2,6-dimethylpyridin-3-yl)-N-((4-methoxy-6-methyl-2-oxo-1,2-dihydropyridine-3-yl)methyl)-6-methyl-5-(1-(4-(2,2,2-trifluoroethyl)piperazin-1-yl)ethyl)indolizine-7-carboxamide]", "IC50": "< 100"}
{"compound": "COc1cc(C)[nH]c(=O)c1CNC(=O)c1cc2c(-c3ccc(C)nc3C)ccn2c([C@H](C)N2CCN(CC(F)(F)F)CC2)c1C", "note": "(single isomer, unassigned) [Compound 178, (S)-1-(2,6-dimethylpyridin-3-yl)-N-((4-methoxy-6-methyl-2-oxo-1,2-dihydropyridine-3-yl)methyl)-6-methyl-5-(1-(4-(2,2,2-trifluoroethyl)piperazin-1-yl)ethyl)indolizine-7-carboxamide or (R) 1-(2,6-dimethylpyridin-3-yl)-N-((4-methoxy-6-methyl-2-oxo-1,2-dihydropyridine-3-yl)methyl)-6-methyl-5-(1-(4-(2,2,2-trifluoroethyl)piperazin-1-yl)ethyl)indolizine-7-carboxamide]", "IC50": "100 to 1000"}
{"compound": "CNc1cc(-c2ccn3c([C@H](C)N4CCN(CC(F)(F)F)CC4)c(C)c(C(=O)NCc4c(OC)cc(C)[nH]c4=O)cc23)ccn1", "note": "(single isomer, unassigned) [Compound 181, (S)—N-((4-methoxy-6-methyl-2-oxo-1,2-dihydropyridin-3-yl)methyl)-6-methyl-1-(2-(methylamino)pyridin-4-yl)-5-(1-(4-(2,2,2-trifluoroethyl)piperazin-1-yl)ethyl)indolizine-7-formamide or (R)—N-((4-methoxy-6-methyl-2-oxo-1,2-dihydropyridin-3-yl)methyl)-6-methyl-1-(2-(methylamino)pyridin-4-yl)-5-(1-(4-(2,2,2-trifluoroethyl)piperazin-1-yl)ethyl)indolizine-7-formamide]", "IC50": "< 100"}
